This passage reports melting point and IC50 results from patent US6855710B2, “Substituted indolines with an inhibitory effect on various kinases and complexes of CDKs” (Boehringer Ingelheim Pharma KG, priority 1998, dated 2005).

As usually defined, the melting point is the temperature of the solid-liquid transition.

Where two headings read alike, the source gives them in different places.

The test system of data set [1] is Leimyosarcoma tumour cell line SK-UT-1B. Briefly: Inhibition of the proliferation of cultivated human tumour cells (Test 2). The class given is cell-based. Conditions: SK-UT-1B cells, 48 hours' incubation, then 14C-thymidine for a further 24 hours, inhibition of incorporated 14C-thymidine, read-out: Inhibition of SKUT-1B-proliferation IC50. As to the method:
Inhibition of the Proliferation of Cultivated Human Tumour Cells
Cells of the Leimyosarcoma tumour cell line SK-UT-1B (obtained from the American Type Culture Collection (ATCC)) were cultivated in Minimum Essential Medium with non-essential amino acids (Gibco), supplemented with sodium pyruvate (1 mmol), glutamine (2 mmol) and 10% foetal calf serum (Gibco) and harvested during the log-growth phase. Then the SK-UT-1B cells were added to Cytostar® multi-well plates (Amersham) at a density of 4000 cells per well and incubated overnight in an incubator. Various concentrations of the compounds (dissolved in DMSO; final concentration: <1%) were added to the cells. After 48 hours' incubation ^14C-thymidine (Amersham) was added to each well and incubation was continued for a further 24 hours. The quantity of ^14C-thymidine incorporated into the tumour cells in the presence of the inhibitor and representing the number of cells in the S phase was measured in a Wallace 1450 Microbeta Liquid Scintillation Counter. IC50 values for the inhibition of proliferation (=inhibition of incorporated ^14C-thymidine) were calculated, correcting for the background radiation. All the measurements were done twice.
The Table which follows contains the results obtained in in vitro test 2: […]

The compound `CN(C)CCc1ccc(N/C(=C2\C(=O)Nc3ccc([N+](=O)[O-])cc32)c2ccccc2)cc1` [Example 134, (Z)-3-{1-[4-(2-dimethylamino-ethyl)-phenylamino]-1-phenyl-methylidene}-5-nitro-2-indolinone] gave a melting point of 238 to 240 °C. Further, the IC50 in data set [1] (Homo sapiens, Skut1B) was 560 nM.

In turn, `CN(C)Cc1ccc(N/C(=C2\C(=O)Nc3ccc([N+](=O)[O-])cc32)c2ccccc2)cc1` [Example 117, (Z)-3-[1-(4-dimethylaminomethyl-phenylamino)-1-phenyl-methylidene]-5-nitro-2-indolinone] registered a melting point of 264 to 265 °C. Further, the IC50 in data set [1] (Homo sapiens, Skut1B) came to 340 nM.

Take `O=C1Nc2ccc([N+](=O)[O-])cc2/C1=C(/Nc1ccc(CCN2CCOCC2)cc1)c1ccccc1` [Example 133, (Z)-3-{1-[4-(2-morpholinoethyl)-phenylamino]-1-phenyl-methylidene}-5-nitro-2-indolinone]: the melting point fell in the range of 304 to 306 °C. Also, the IC50 in data set [1] (Homo sapiens, Skut1B) was found to be 480 nM.

Consider `O=C1Nc2ccc([N+](=O)[O-])cc2/C1=C(/Nc1ccc(CN2CCCCC2)cc1)c1ccccc1` [Example 170, (Z)-3-[1-(4-piperidinomethyl-phenylamino)-1-phenyl-methylidene]-5-nitro-2-indolinone], for which the melting point was 242 to 243 °C. Also, in data set [1] (Homo sapiens, Skut1B), the IC50 was 220 nM.

Turning to `CN(C)CCN(c1ccc(N/C(=C2\C(=O)Nc3ccccc32)c2ccccc2)cc1)S(C)(=O)=O` [Example 188], the IC50 in data set [1] came out at 150 nM.
